Earlier results as cited in patent publication US6310180A, “Method for synthesis of proteins” (Vanderbilt University, priority 1995, dated 2001).
Square brackets hold non-standard residues; d marks the D form. Peptide text beside a SMILES is read from it. Sta = CC(C)C[C@H](N)[C@@H](O)CC(=O)O

Molecular target: HIV-1 protease (Human immunodeficiency virus type 1 group M subtype B, UniProt P03369)
Conditions: aspartic protease inhibitor "has been shown to inhibit the HIV-1 protease"; added to the ligation solution to prevent autoproteolysis

## CC(=O)N[C@H](C(=O)N[C@H](C(=O)N[C@@H](CC(C)C)[C@@H](O)CC(=O)N[C@@H](C)C(=O)N[C@@H](CC(C)C)[C@@H](O)CC(=O)O)C(C)C)C(C)C [acetyl-pepstatin] (Ac-VV[Sta]A[Sta]-OH)
  Ki: 20 mM
